# Legend:
# Conditions in all cases: incubation time: 72 h
# BT-474 [1] = assay: normalised response (% of control), CellTox Green; higher = less cell death (100 = DMSO, 0 = benzethonium chloride kill control)
# Outline: (§1)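 In 384-well plates holding compound at 5 concentrations in 10-fold steps over a 10,000-fold range specific to each compound, breast cancer cell lines were seeded as 20 µl suspension and incubated 72 h. CellTox Green fluorescence was measured at 485/520 nm, after which CellTiter-Glo luminescence was measured following 10 min at room temperature. Plate signals were normalised to 0.1 % DMSO (100) and a positive kill control (0), and each value is the normalised signal at a single concentration.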
# BT-549 [2] = assay: as above
# Outline: as §1
# CAL-120 [3] = assay: as above
# Outline: as §1
# CAL-148 [4] = assay: as above
# Outline: as §1
# CAL-51 [5] = assay: as above
# Outline: as §1
# CAL-85-1 [6] = assay: as above
# Outline: as §1
# DU-4475 [7] = assay: as above
# Outline: as §1
# HCC1143 [8] = assay: as above
# Outline: as §1
# HCC1599 [9] = assay: as above
# Outline: as §1
# HCC1937 [10] = assay: as above
# Outline: as §1
# HDQ-P1 [11] = assay: as above
# Outline: as §1
# Hs578T [12] = assay: as above
# Outline: as §1
# MCF-10A [13] = assay: as above
# Outline: as §1
# MDA-MB-231 [14] = assay: as above
# Outline: as §1
# MDA-MB-453 [15] = assay: as above
# Outline: as §1
# MFM-223 [16] = assay: as above
# Outline: as §1
# BT-474 [17] = assay: normalised response (% of control), CellTiter-Glo; higher = more viable cells (100 = DMSO, 0 = benzethonium chloride kill control)
# Method: (§2)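 DSRT, 72 h incubation, CellTox Green / CellTiter-Glo readout. Signal is normalised to DMSO and benzethonium chloride controls. Value is the normalised response at dose 3.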
# BT-549 [18] = assay: as above
# Method: as §2
# CAL-120 [19] = assay: as above
# Method: as §2
# CAL-148 [20] = assay: as above
# Method: as §2
# CAL-51 [21] = assay: as above
# Method: as §2
# CAL-85-1 [22] = assay: as above
# Method: as §2
# DU-4475 [23] = assay: as above
# Method: as §2
# HCC1143 [24] = assay: as above
# Method: as §2
# HCC1599 [25] = assay: as above
# Method: as §2
# HCC1937 [26] = assay: as above
# Method: as §2
# HDQ-P1 [27] = assay: as above
# Method: as §2
# Hs578T [28] = assay: as above
# Method: as §2
# MCF-10A [29] = assay: as above
# Method: as §2
# MDA-MB-231 [30] = assay: as above
# Method: as §2
# MDA-MB-436 [31] = assay: as above
# Method: as §2
# MDA-MB-453 [32] = assay: as above
# Method: as §2
# MDA-MB-468 [33] = assay: as above
# Method: as §2
# MFM-223 [34] = assay: as above
# Method: as §2
# SK-BR-3 = assay: as above
# Method: as §2
# MDA-MB-436 [35] = assay: normalised response (% of control), CellTox Green; higher = less cell death (100 = DMSO, 0 = benzethonium chloride kill control)
# Outline: as §1
# MDA-MB-468 [36] = assay: as above
# Outline: as §1
Compound,normalised response (BT-474 [1]) [%],normalised response (BT-549 [2]) [%],normalised response (CAL-120 [3]) [%],normalised response (CAL-148 [4]) [%],normalised response (CAL-51 [5]) [%],normalised response (CAL-85-1 [6]) [%],normalised response (DU-4475 [7]) [%],normalised response (HCC1143 [8]) [%],normalised response (HCC1599 [9]) [%],normalised response (HCC1937 [10]) [%],normalised response (HDQ-P1 [11]) [%],normalised response (Hs578T [12]) [%],normalised response (MCF-10A [13]) [%],normalised response (MDA-MB-231 [14]) [%],normalised response (MDA-MB-453 [15]) [%],normalised response (MFM-223 [16]) [%],normalised response (BT-474 [17]) [%],normalised response (BT-549 [18]) [%],normalised response (CAL-120 [19]) [%],normalised response (CAL-148 [20]) [%],normalised response (CAL-51 [21]) [%],normalised response (CAL-85-1 [22]) [%],normalised response (DU-4475 [23]) [%],normalised response (HCC1143 [24]) [%],normalised response (HCC1599 [25]) [%],normalised response (HCC1937 [26]) [%],normalised response (HDQ-P1 [27]) [%],normalised response (Hs578T [28]) [%],normalised response (MCF-10A [29]) [%],normalised response (MDA-MB-231 [30]) [%],normalised response (MDA-MB-436 [31]) [%],normalised response (MDA-MB-453 [32]) [%],normalised response (MDA-MB-468 [33]) [%],normalised response (MFM-223 [34]) [%],normalised response (SK-BR-3) [%],normalised response (MDA-MB-436 [35]) [%],normalised response (MDA-MB-468 [36]) [%]
N.N.[Cl][Pt][Cl] [Cisplatin] (10 nM),104,115,108,103,94.8,112,114,109,102,90.6,109,78.4,115,114,106,105,102,107,108,82.8,90.6,94.7,96.6,103,104,97.7,101,96.4,106,103,103,90.5,85.3,99.8,93.5,,
COc1cc2ncnc(Nc3ccc(F)c(Cl)c3)c2cc1NC(=O)/C=C/CN1CCCCC1 [Dacomitinib] (10 nM),98.8,102,105,101,105,90.5,104,80,88.8,,50,,108,103,98,100,100,105,100,103,91,84.2,104,102,99.7,98.1,77,108,56.4,106,100,96,78.8,103,77.3,103,68.7
Clc1ccc(Nc2nnc(Cc3ccncc3)c3ccccc23)cc1 [Vatalanib] (100 nM),99.6,105,102,107,110,77.6,101,117,106,115,109,111,103,102,64,103,103,109,99.1,112,89.3,103,105,106,109,103,101,106,111,105,111,106,108,107,102,,
Cc1ccc(C(=O)N(CCCN)[C@@H](c2oc3cc(Cl)ccc3c(=O)c2Cc2ccccc2)C(C)C)cc1 (1 nM),101,93.7,83.7,93.5,74.1,113,103,,88.1,97,100,104,107,102,104,100,95,101,102,84.9,65.8,107,96.6,103,104,94.3,105,94.8,97,103,105,91.4,93.9,91.4,88.2,108,
CNCc1ccc(-c2[nH]c3cc(F)cc4c3c2CCNC4=O)cc1 [Rucaparib] (100 nM),95.5,71.6,98.9,97.4,91.6,97.5,95.7,104,94.4,,104,108,,87,102,73.3,93,106,92.8,86,84.1,99.1,97.2,99.3,109,99.2,98.3,99.8,93.6,99.2,90.6,91.3,104,88.8,90,83.3,
Cc1ccc(C(=O)Nc2ccc(CN3CCN(C)CC3)c(C(F)(F)F)c2)cc1C#Cc1cnc2cccnn12 [Ponatinib] (10 nM),100,94.4,102,95.3,99.5,103,101,69.8,101,,,,99.1,,105,77.6,105,104,106,106,106,99.5,101,99.5,89.4,94.3,105,99.1,111,99.6,109,105,106,88.4,106,73.4,93.2
NC(=O)Nc1cc(-c2cccc(F)c2)sc1C(=O)N[C@H]1CCCNC1 [AZD7762] (10 nM),101,96.5,99.8,96,113,100,99.5,105,116,107,108,,102,104,105,104,105,101,106,106,106,97.5,102,110,91.3,95,94,94.5,99.5,104,104,81.9,102,103,103,91,104
CO[C@H]1/C=C\C=C(/C)C(=O)NC2=CC(=O)C(NCCN(C)C)=C(C[C@@H](C)C[C@H](OC)[C@H](O)[C@@H](C)/C=C(\C)[C@@H]1OC(N)=O)C2=O [Alvespimycin] (10 nM),93.9,89.8,97.3,108,110,95.8,101,105,111,118,90.8,,94.8,85.3,96.9,104,104,63.4,106,110,101,104,103,99,106,94.8,89.5,103,115,106,76.8,89.1,94.8,88.1,72.3,89.8,116
CC(C)Cn1cnc2c(N)nc3ccccc3c21 [Imiquimod] (25 nM),102,87.2,96.9,,90.4,98.1,102,81.4,103,102,74.9,51.6,91.9,100,61.1,105,104,103,101,110,81.8,99.9,107,107,101,94.8,101,107,103,102,104,97.4,104,107,106,101,
